Experimental data published in patent publication US20140357512A1, “HISTONE DEACETYLASE (HDAC) BIOMARKERS IN MULTIPLE MYELOMA” (priority 2013, published 2014).

System: human myeloma cell line MM.1S
Assay: SILAC acetylated-lysine peptide profiling, HDAC inhibitor vs DMSO (light/heavy ratio)
Format: cell-based
From the text: An embodiment of the invention comprises utilizing the SILAC method in order to quantitate changes in protein expression between two or more populations of cells. The SILAC method is a technique based on mass spectrometry that detects differences in protein abundance among samples using non-radioactive isotopic labeling. The SILAC method is known in the art, and described in detail in Ong et al., “Stable Isotope Labeling by Amino Acids in Cell Culture, SILAC, as a Simple and Accurate Approach to Expression Proteomics”, Molecular & Cellular Proteomics, vol. 1, pp. 376-386 (2002), which is incorporated herein by reference in its entirety.
Briefly, the SILAC method involves growing two populations of cells in cell culture. The first population of cells is grown in growth media containing normal amino acids (“normal media”). The second population of cells is grown in media lacking a standard essential amino acid (such as lysine), but is then supplemented with a non-radioactive, isotopically labeled form of that essential amino acid (such as lysine labeled with ^13C atoms, rather than normal ^12C atoms), which is called “heavy media”. When the two populations of cells are each growing in the medium, they incorporate the amino acids into all of their proteins. The growth of cells maintained in the heavy media is no different from that in normal media. All peptides containing the heavy amino acids are heavier than their normal counterparts. The cells from each of the two populations of cells are lysed. The lysates from each of the two cell populations are then combined. The combined cell lysates are then analyzed by mass spectrometry. Pairs of chemically identical peptides of different stable isotope composition can be differentiated in a mass spectrometer due to their difference in mass. The ratio of peak intensities in the mass spectrum for such peptide pairs reflects the abundance ratio for the two proteins.
This example describes SILAC studies that were performed to compare the effects of three different HDAC inhibitors (Compound A, Compound B, and tubastatin A) to a control on a human multiple myeloma cell line. The HDAC inhibitors were also compared amongst themselves to determine differences in their effects.
A human myeloma cell line MM.1S was grown using either ^12C (light) or ^13C (heavy) lysine containing culture medium. The “heavy” cells were treated with DMSO as the control, and the “light” cells were treated with a single HDAC inhibitor at 37° C. for 6 hours. The heavy and light cells were lysed, and the lysates were mixed in 1:1 ratio and digested with the protease trypsin. The acetylated lysine containing peptides (due to the action of the HDAC inhibitor) in the digested peptide pool were captured by a non-specific anti-acetylated lysine antibody cocktail (the antibodies identify both light and heavy acetylated peptides), and subjected to mass spectrometry analysis in order to identify thousands of individual peptides.
Thousands of peptides were identified in pairs (^12C and ^13C) due to their known mass differences. The amino acid sequence and quantitative ratio (Light/Heavy) of a given peptide in two differentially treated cell lysates were then determined and annotated with their possible protein (gene) sources.
As stated above, three HDAC inhibitors (Compound A, Compound B, and Tubastatin A) were used. Thus, the SILAC method was performed three times, with a different HDAC inhibitor compared to a control each time. Accordingly, there are three pairs of quantitative data in the table below, i.e., Compound A:DMSO, Compound B:DMSO, and Tubastatin A:DMSO. A cut-off of 1.30 fold of change (increase or decrease) was then used to determine “changed” or “+” in the table, and any peptides with a fold of change less than 1.3 fold were determined to be “unchanged” or “0” in the table. Those peptides that were not identified were marked as “NA” in the table. […]

With O=C(NO)c1cnc(NC2(c3cccc(F)c3)CCCCC2)nc1 [Compound B, 2-((1-(3-fluorophenyl)cyclohexyl)amino)-N-hydroxypyrimidine-5-carboxamide] the “L/H ratio of acetylated peptide PDPAK(ac)SAPAPK(ac)K (SEQ ID NO: 16)” value (HIST1H2BO [6:12], log 2 scale, drug vs DMSO) was 0.66, the “light to heavy ratio (L/H ratio) of acetylated peptide SLNLK(ac)HIK (SEQ ID NO: 607)” value (HLA-B associated transcript 1 [188], gene SNORD84, DDX39B, inhibitor:DMSO) was 0.00 log 2 and the “L/H ratio of acetylated peptide K(ac)[…] (SEQ ID NO: 42)” value (HMGB2 [30], log 2 scale, drug vs DMSO) was 0.00. The “L/H ratio of acetylated peptide” value (HMVMQK(ac)LLR (SEQ ID NO: 438), Isoform 1 of Poly(U)-binding-splicing factor PUF60 [454], PUF60) was 0.71 log 2, the “L/H ratio of acetylated peptide RGEEGHDPK(ac)EPEQLR (SEQ ID NO: 43)” value (HNRNPA3 [29], log 2 scale, drug vs DMSO) was 0.00 and the “L/H ratio of acetylated peptide […](ac)WQSLK (SEQ ID NO: 44)” value (HNRNPM [83], log 2 scale, drug vs DMSO) was 0.00. The “L/H ratio of acetylated peptide AAEVLNK(ac)HSLSGRPLK (SEQ ID NO: 3)” value (HNRNPM [134], log 2 scale, drug vs DMSO) was −0.74, the “L/H ratio of acetylated peptide VK(ac)VLFVR (SEQ ID NO: 45)” value (HNRNPR [341], log 2 scale, drug vs DMSO) was 0.00 and the “L/H ratio of acetylated peptide […](ac)YSR (SEQ ID NO: 46)” value (HNRNPU [246], log 2 scale, drug vs DMSO) was 0.00. For the same compound, the “L/H ratio of acetylated peptide TTWVTK(ac)HAAENPGK (SEQ ID NO: 47)” value (HNRNPU [497], log 2 scale, drug vs DMSO) was 0.00, the “L/H ratio of acetylated peptide NK(ac)EIFLR (SEQ ID NO: 52)” value (HSP90B1 [97], log 2 scale, drug vs DMSO) was 0.00 and the “L/H ratio of acetylated peptide […](ac)IR (SEQ ID NO: 49)” value (HSP90B1 [114], log 2 scale, drug vs DMSO) was 0.00. For the same compound, the “L/H ratio of acetylated peptide ETLQQHK(ac)LLK (SEQ ID NO: 50)” value (HSP90B1 [455], log 2 scale, drug vs DMSO) was 0.00, the “L/H ratio of acetylated peptide IADDK(ac)YNDTFWK (SEQ ID NO: 51)” value (HSP90B1 [479], log 2 scale, drug vs DMSO) was 0.00 and the “L/H ratio of acetylated peptide […](ac)R (SEQ ID NO: 54)” value (HSPA5 [96], log 2 scale, drug vs DMSO) was 0.00. The “L/H ratio of acetylated peptide […](ac)R (SEQ ID NO: 55)” value (HSPA8 [71], log 2 scale, drug vs DMSO) was 0.00, the “L/H ratio of acetylated peptide” value (HSPEDPEK(ac)YSCFALFVK (SEQ ID NO: 432), Isoform 1 of DNA-dependent protein kinase catalytic subunit [700], PRKDC) was −0.41 log 2 and the “L/H ratio of acetylated peptide” value (HTENVAK(ac)[…] (SEQ ID NO: 384), Transcriptional repressor CTCF [436], CTCF) was −0.66 log 2. For the same compound, the “light to heavy ratio (L/H ratio) of acetylated peptide […](ac)R (SEQ ID NO: 267)” value (Heat shock 70 kDa protein 1A/1B [71], HSPA1B, HSPA1A, drug:DMSO) was 0.00 log 2, the “light to heavy ratio (L/H ratio), log 2 scale, acetylated peptide TEMDWVLK(ac)[…] (SEQ ID NO: 797)” value (Heterogeneous nuclear ribonucleoprotein F [98], gene HNRNPF, drug:DMSO) was 0.00 and the “light to heavy ratio (L/H ratio) of acetylated peptide YEK(ac)DIAAYR (SEQ ID NO: 595)” value (High mobility group protein B2 [157], gene HMGB2, inhibitor:DMSO) was 0.00 log 2. For the same compound, the “light to heavy ratio (L/H ratio), log 2 scale, acetylated peptide K(ac)AINK(ac)AQK (SEQ ID NO: 793)” value (Histone H2B type 1-M [17:21], gene HIST1H2BM, drug:DMSO) was 0.00, the “light to heavy ratio (L/H ratio) of acetylated peptide PEPAK(ac)SAPAPK(ac)K (SEQ ID NO: 309)” value (Histone H2B type 2-E [6:12], HIST2H2BE, drug:DMSO) was 0.00 log 2 and the “light to heavy ratio (L/H ratio) of acetylated peptide K(ac)STGGK(ac)APR (SEQ ID NO: 310)” value (Histone H3.2 [10:15], HIST2H3D, HIST2H3A, HIST2H3C, drug:DMSO) was 0.00 log 2. The “light to heavy ratio (L/H ratio) of acetylated peptide GK(ac)GGK(ac)GLGK (SEQ ID NO: 311)” value (Histone H4 [6:9], HIST2H4B, HIST1H4C and other H4 genes, drug:DMSO) was 0.00 log 2, the “light to heavy ratio (L/H ratio) of acetylated peptide GLGK(ac)GGAK(ac)R (SEQ ID NO: 312)” value (Histone H4 [13:17], HIST2H4B, HIST1H4C and other H4 genes, drug:DMSO) was 0.00 log 2 and the “light to heavy ratio (L/H ratio) of acetylated peptide GLGK(ac)GGAKR (SEQ ID NO: 313)” value (Histone H4 [13], HIST2H4B, HIST1H4C and other H4 genes, drug:DMSO) was 0.00 log 2. For the same compound, the “light to heavy ratio (L/H ratio) of acetylated peptide DGLQNEK(ac)NIVSTPVK (SEQ ID NO: 268)” value (Hydroxymethylglutaryl-CoA lyase mitochondrial [48], HMGCL, drug:DMSO) was 0.00 log 2, the “light to heavy ratio (L/H ratio) of acetylated peptide K(ac)[…] (SEQ ID NO: 594)” value (Hydroxymethylglutaryl-CoA lyase mitochondrial [137], gene HMGCL, inhibitor:DMSO) was 0.00 log 2 and the “L/H ratio of acetylated peptide” value (IAVEAQNK(ac)YER (SEQ ID NO: 457), Nucleoprotein TPR [1081], TPR) was 0.63 log 2. For the same compound, the “L/H ratio of acetylated peptide” value (IDYGEYMDK(ac)NNVR (SEQ ID NO: 454), Single-stranded DNA-binding protein mitochondrial [122], SSBP1) was −0.52 log 2 and the “light to heavy ratio (L/H ratio) of acetylated peptide, log 2 scale” value (IGK(ac)[…] (SEQ ID NO: 236), Thioredoxin domain-containing protein 5 [244], TXNDC5, MUTED, MUTED-TXNDC5) was 0.00.
